Tested on: Caco-2 cells
Experiment: In situ global proteomics profiling of Caco-2 cells (LC-MS/MS, LFQ)
Assay type: cell-based, human
Conditions: LFQ
Protocol: Figure 7 Identification of PPARγ as target of deoxyelephantopin and screening of DEP derivatives as PPARγ antagonists. (a) Quantification of endogenous PPARγ enriched from Caco-2 cells using 10 μM 24c following in situ treatment with DEP (20 μM) or DMSO (normalized LFQ values±s.d. are shown; n=6). (b) Changes in expression levels of five PPARγ-dependent proteins following 24 h treatment of Caco-2 cells with DMSO, rosiglitazone (10 μM), T0070907 (50 μM) or DEP (20 μM; LFQ ratios±s.d. are shown; n=3). **P<0.005 and ***P<0.0005 by two-sided Student's t-test. (c) Gel-based competitive screening of DEP and analogues as PPARγ antagonists against recombinant human enzyme (top). hPPARγ was treated with each compound (20 μM) for 1 h followed by treatment with 24c-Cy3 (10 μM) as probe. Quantification of fluorescence intensity in the competitive screening for PPARγ antagonists (bottom; values±s.d. are shown; n=3).
Caco-2 cells were treated with DMSO, PPARγ agonist rosiglitazone, antagonist T0070907 or DEP for 24 h, the cells were collected and the proteomes were comparatively analysed by LC–MS/MS. […] Furthermore, the list of 43 dysregulated proteins was analysed and classified using the GOrilla pathway analysis tool (Supplementary Fig. 15). […]
In situ global proteomics profiling using LC-MS/MS. Caco- ’ cells/mL) in a 6-well plate, allowed to grow to confluence and to differentiate for 28 days. The wells were washed one time with PBS and treated with either DMSO, 10 µM rosiglitazone, 50 µM T0070907 or 20 µM DEP for 24 hours. Cells were washed two times with PBS and lysates were prepared. Samples (30 µg) were denatured with 6 M urea in 50 mM NH4HCO3, reduced […]
dark. Samples were diluted to 2 M urea with 50 mM NH4HCO3, and digested with trypsin ([…] for 12 hours at 37 °C. Samples were acidified to a final concentration of 5% acetic acid, desalted over a self-packed C18 spin column and […]
dried. […]
LC-MS/MS analysis. Peptides were resuspended in water with 0.1% formic acid (FA) and analyzed using Proxeon EASY-nLC 1000 nano-UHPLC coupled to QExactive Plus Quadrupole-Orbitrap mass spectrometer (Thermo Scientific). The chromatography column […]
H2O (Buffer A) and 0.1% FA in MeCN (Buffer B). Peptides were eluted into the mass spectrometer at a flow rate of 300 nL/min. over a 240 min. linear gradient (3-35% Buffer B) at 50 °C. Data was acquired in data-dependent mode (top- N = ’ […]
and isotope exclusion was enabled.
MaxQuant analysis. The MS data was analyzed with MaxQuant (V1.5.2.8) and searched against the human proteome (Uniprot, 89,649 entries) and a common list of contaminants (included in MaxQuant). The first peptide search tolerance was set to 20 ppm, 10 ppm was used for the main peptide search and fragment mass tolerance was set to 0.02 Da. The false discovery rate for peptides, proteins and sites identification was set to 1%. The minimum peptide length was set to 6 amino acids and peptide re-quantification, label-free quantification (MaxLFQ) and “ ” were enabled. The minimal number of peptides per protein was set to two. Oxidized methionines and N-terminal acetylation were searched as variable modifications and carbamidomethylation of cysteines was searched as a fixed modification. For SILAC experiments 13C6 L-lysine and 13C6 15N4 L-arginine were set as heavy isotope labels and 12C6 L-lysine and 12C6 14N4 L-arginine as light isotope labels.
19 d k g h ARγ. 19a was covalently docked to the crystal structure of human γ ZU 190 using the GOLD suite (V5.3, CCDC). The default GOLD fitness function was used to determine the best binding configuration. The distance for hydrogen bonding was set to 3 Å.
IAA competition of 23c, 24c and DEP h ARγ. γ
(500 ng in 9 µL PBS) was treated with either 100 µM DEP, 23c, 24c or DMSO (1 µL of 10x stock in DMSO) for one hour. Samples were denatured with 6 M urea in 50 mM NH4HCO3, […]
in the dark. Samples were diluted to 2 M urea with 50 mM NH4HCO3, and digested with trypsin […]

## CN(CCOc1ccc(CC2SC(=O)NC2=O)cc1)c1ccccn1 (centres unmarked) [Rosiglitazone, rosiglitazone]
Protein ALDH3B1, 24 h
  Log2 10 µM Rosiglitazone/DMSO: -0.32
Protein ARHGAP17, 24 h
  Log2 10 µM Rosiglitazone/DMSO: 0.39
Protein ARMCX3, 24 h
  Log2 10 µM Rosiglitazone/DMSO: -0.36
Protein COL4A3BP, 24 h
  Log2 10 µM Rosiglitazone/DMSO: -0.06
Protein CROT, 24 h
  Log2 10 µM Rosiglitazone/DMSO: 0.034
Protein CTBP2, 24 h
  Log2 10 µM Rosiglitazone/DMSO: 0.36
Protein DDX21, 24 h
  Log2 10 µM Rosiglitazone/DMSO: 0.15
Protein FNTA, 24 h
  Log2 10 µM Rosiglitazone/DMSO: -0.12
Protein GID8, 24 h
  Log2 10 µM Rosiglitazone/DMSO: 0.46
Protein GIPC2, 24 h
  Log2 10 µM Rosiglitazone/DMSO: 0.0144
Protein GIT2, 24 h
  Log2 10 µM Rosiglitazone/DMSO: -0.38
Protein GSTA1, 24 h
  Log2 10 µM Rosiglitazone/DMSO: 0.21
Protein GSTA2, 24 h
  Log2 10 µM Rosiglitazone/DMSO: 0.20
Protein GSTM3, 24 h
  Log2 10 µM Rosiglitazone/DMSO: 0.30
Protein HIGD1A, 24 h
  Log2 10 µM Rosiglitazone/DMSO: 0.43
Protein IREB2, 24 h
  Log2 10 µM Rosiglitazone/DMSO: 0.26
Protein ITGB4, 24 h
  Log2 10 µM Rosiglitazone/DMSO: 0.08
Protein LDHD, 24 h
  Log2 10 µM Rosiglitazone/DMSO: -0.20
Protein LDLR, 24 h
  Log2 10 µM Rosiglitazone/DMSO: 0.49
Protein LIPA, 24 h
  Log2 10 µM Rosiglitazone/DMSO: 0.034
Protein MARCH5, 24 h
  Log2 10 µM Rosiglitazone/DMSO: 0.40
Protein MGMT, 24 h
  Log2 10 µM Rosiglitazone/DMSO: -0.17
Protein MYO15B, 24 h
  Log2 10 µM Rosiglitazone/DMSO: 0.08
Protein NOP9, 24 h
  Log2 10 µM Rosiglitazone/DMSO: 0.07
Protein OAS1, 24 h
  Log2 10 µM Rosiglitazone/DMSO: 0.0144
Protein OGDHL, 24 h
  Log2 10 µM Rosiglitazone/DMSO: 0.10
Protein PANK4, 24 h
  Log2 10 µM Rosiglitazone/DMSO: -0.34
Protein PHPT1, 24 h
  Log2 10 µM Rosiglitazone/DMSO: -0.36
Protein PSIP1, 24 h
  Log2 10 µM Rosiglitazone/DMSO: 0.49
Protein RAB5B, 24 h
  Log2 10 µM Rosiglitazone/DMSO: 0.49
Protein RBP4, 24 h
  Log2 10 µM Rosiglitazone/DMSO: 0.20
Protein RRS1, 24 h
  Log2 10 µM Rosiglitazone/DMSO: 0.50
Protein SAMHD1, 24 h
  Log2 10 µM Rosiglitazone/DMSO: -0.43
Protein SCAMP3, 24 h
  Log2 10 µM Rosiglitazone/DMSO: 0.45
Protein SETDB1, 24 h
  Log2 10 µM Rosiglitazone/DMSO: 0.08
Protein SLC26A3, 24 h
  Log2 10 µM Rosiglitazone/DMSO: 0.10
Protein SLC39A14, 24 h
  Log2 10 µM Rosiglitazone/DMSO: -0.49
Protein STK4, 24 h
  Log2 10 µM Rosiglitazone/DMSO: 0.36
Protein SURF6, 24 h
  Log2 10 µM Rosiglitazone/DMSO: 0.26
Protein TGOLN2, 24 h
  Log2 10 µM Rosiglitazone/DMSO: 0.28
Protein TPD52L1, 24 h
  Log2 10 µM Rosiglitazone/DMSO: -0.45
Protein TTR, 24 h
  Log2 10 µM Rosiglitazone/DMSO: 0.46
Protein VPS52, 24 h
  Log2 10 µM Rosiglitazone/DMSO: 0.42

## O=C(Nc1ccncc1)c1cc([N+](=O)[O-])ccc1Cl [T0070907]
Protein ALDH3B1, 24 h
  Log2 50 µM T0070907/DMSO: -0.79
Protein ARHGAP17, 24 h
  Log2 50 µM T0070907/DMSO: -0.81
Protein ARMCX3, 24 h
  Log2 50 µM T0070907/DMSO: -0.71
Protein COL4A3BP, 24 h
  Log2 50 µM T0070907/DMSO: -0.76
Protein CROT, 24 h
  Log2 50 µM T0070907/DMSO: -0.85
Protein CTBP2, 24 h
  Log2 50 µM T0070907/DMSO: 0.83
Protein DDX21, 24 h
  Log2 50 µM T0070907/DMSO: 0.92
Protein FNTA, 24 h
  Log2 50 µM T0070907/DMSO: -0.97
Protein GID8, 24 h
  Log2 50 µM T0070907/DMSO: 0.60
Protein GIPC2, 24 h
  Log2 50 µM T0070907/DMSO: -0.69
Protein GIT2, 24 h
  Log2 50 µM T0070907/DMSO: -0.89
Protein GSTA1, 24 h
  Log2 50 µM T0070907/DMSO: -0.76
Protein GSTA2, 24 h
  Log2 50 µM T0070907/DMSO: -0.80
Protein GSTM3, 24 h
  Log2 50 µM T0070907/DMSO: -0.71
Protein HIGD1A, 24 h
  Log2 50 µM T0070907/DMSO: 0.70
Protein IREB2, 24 h
  Log2 50 µM T0070907/DMSO: 0.96
Protein ITGB4, 24 h
  Log2 50 µM T0070907/DMSO: 1.36
Protein LDHD, 24 h
  Log2 50 µM T0070907/DMSO: -0.67
Protein LDLR, 24 h
  Log2 50 µM T0070907/DMSO: 1.99
Protein LIPA, 24 h
  Log2 50 µM T0070907/DMSO: -0.85
Protein MARCH5, 24 h
  Log2 50 µM T0070907/DMSO: 1.21
Protein MGMT, 24 h
  Log2 50 µM T0070907/DMSO: -0.69
Protein MYO15B, 24 h
  Log2 50 µM T0070907/DMSO: -0.74
Protein NOP9, 24 h
  Log2 50 µM T0070907/DMSO: 1.10
Protein OAS1, 24 h
  Log2 50 µM T0070907/DMSO: 0.92
Protein OGDHL, 24 h
  Log2 50 µM T0070907/DMSO: -1.02
Protein PANK4, 24 h
  Log2 50 µM T0070907/DMSO: -0.81
Protein PHPT1, 24 h
  Log2 50 µM T0070907/DMSO: -1.25
Protein PSIP1, 24 h
  Log2 50 µM T0070907/DMSO: 0.60
Protein RAB5B, 24 h
  Log2 50 µM T0070907/DMSO: 0.62
Protein RBP4, 24 h
  Log2 50 µM T0070907/DMSO: -0.37
Protein RRS1, 24 h
  Log2 50 µM T0070907/DMSO: 0.77
Protein SAMHD1, 24 h
  Log2 50 µM T0070907/DMSO: -0.81
Protein SCAMP3, 24 h
  Log2 50 µM T0070907/DMSO: 0.64
Protein SETDB1, 24 h
  Log2 50 µM T0070907/DMSO: 0.63
Protein SLC26A3, 24 h
  Log2 50 µM T0070907/DMSO: -1.02
Protein SLC39A14, 24 h
  Log2 50 µM T0070907/DMSO: -0.69
Protein STK4, 24 h
  Log2 50 µM T0070907/DMSO: -0.81
Protein SURF6, 24 h
  Log2 50 µM T0070907/DMSO: 0.78
Protein TGOLN2, 24 h
  Log2 50 µM T0070907/DMSO: 0.93
Protein TPD52L1, 24 h
  Log2 50 µM T0070907/DMSO: -1.09
Protein TTR, 24 h
  Log2 50 µM T0070907/DMSO: -1.25
Protein VPS52, 24 h
  Log2 50 µM T0070907/DMSO: 0.77

Reference: paper PMC4992173, “Divergent synthesis and identification of the cellular targets of deoxyelephantopins” (Nature Communications, 2016)
